Results taken from US20040063681A1, “Methods for using gold (III) complexes as anti-tumor and anti-HIV agents” (priority 2002, published 2004).
Several values for one entry are separate records, joined by “and”; a condition that tells them apart may be missing. Identical values can stand only once.

Legend:
calf thymus DNA [1] = experiment: UV-vis absorption titration with calf thymus DNA; type: binding
Procedure: The calf thymus DNA was purchased from Sigma-Aldrich Chemical Co. and was purified by phenol-chloroform extraction. The DNA was dissolved in buffer (5 mM Tris, 5 mM NaCl, pH 7.2). The concentration (per base pair) of calf thymus DNA was determined spectrophotometrically on the basic of ε260, 13,200 M^−1cm^−1bp.
Absorption Titration. The binding interaction of the gold(III) porphyrins to duplex DNA has been studied by UV-vis spectroscopy.
where [ctDNA] is the concentration of DNA, Δεap═|εA−εB| in which εA=Aobs/[complex], and Δε=|εB−εF|. εB and εF correspond to the extinction coefficient of DNA-bound gold(III) porphyrin and the free gold(III) porphyrins, respectively.
The effect of temperature on the intrinsic binding constants was investigated. Using the van't Hoff equation (2): […]

calf thymus DNA [2] = experiment: Viscosity evaluation of DNA; settings: (η/ηo)^1/3 vs binding ratio r
From the text: Viscosity evaluation. The binding interaction of the gold(III) porphyrins can be further investigated by examining the change of DNA viscosity upon binding of the metalloporphyrin. If the metalloporphyrin binds to DNA by intercalation, this would cause chain elongation, unwinding and stiffening of the DNA helix as a consequence of untwisting of the base pairs and helical backbone needed to accommodate the intercalator.
For comparison, the viscosity profiles for ethidium bromide (intercalator) and Hoechst 33342 (minor groove binder) are also shown is FIG. 10.

plasmid DNA (pDR2) = experiment: Restriction endonuclease (ApaI) fragmentation assay
From the text: Binding of the metalloporphyrin onto a duplex DNA such as plasmid DNA (pDR2) is expected to occupy the binding site of the restriction enzyme ApaI, thereby inhibiting the enzymatic DNA digestion. See Ikeda et al., J. Am. Chem. Soc. 104:296-297 (1982).
After ApaI digestion, (lane B), three bands corresponding to 6.6, 4.4 and 2.0 kbp were observed.

[3] = Control UV-vis titration with sodium dodecyl sulfate instead of DNA; type: binding; settings: sodium dodecyl sulfate (0-5 μM) instead of DNA
From the text: See Neidle, S. DNA structure and recognition; Oxford University Press: Oxford, 1994; 74-79.

[4] = target: T1, HIV-1 reverse transcriptase (Human immunodeficiency virus type 1 group M subtype B, UniProt P04585); experiment: HIV-1 reverse transcriptase activity, ELISA method; type: biochemical; settings: ELISA; mean ± SE of at least three determinations; read-out: IC50 HIV-1 RT
T1 construct: treatment of HIV-1 RT in Lysis buffer (2 ng, 128.7 μL) with Complex 1j
Procedure: HIV-1 reverse transcriptase activities were measured by an ELISA method (see Eberle et al, J. Virol. Methods, 40:347-356 (1992) performed by incubating the enzyme with digoxigenin-labeled deoxyuridin-5′-triphosphate (dUTP) and the biotin-labeled analogue during reverse transcription starting from the template/primer hybrid poly(A)•oligo(dT)15. After reverse transcription, the newly synthesized DNA was immobilized onto streptavidin-coated ELISA wells, and the incorporation of the dioxigenin-labeled dUTP was assayed by chemiluminescence method. For example, treatment of HIV-1 RT in Lysis buffer (2 ng, 128.7 μL) with Complex 1j (1.3 μL of […] stock solution) dissolved in TBS at 37° C. produced significant RT activity inhibition (˜95%) after 30 min incubation.

[5] = Electrochemical measurements (cyclic voltammetry); type: physicochemical
Procedure: Electrochemical measurements. Electrochemical measurements were performed at room temperature after purging with nitrogen using 0.1 M tetrabutylammonium hexafluorophosphate (TBAP)/acetonitrile as supporting electrolyte. The working electrode was a glassy carbon (Atomergic Chemetal V25, geometric area of 0.35 cm^2) electrode and the counter electrode was platinum gauze. A nonaqueous Ag/AgNO3 (0.1 M in acetonitrile) reference electrode was contained in a separate compartment connected to the test solution via fine sintered glass disks. The ferrocenium/ferrocene couple was used as the internal standard. The redox properties of the gold(III) porphyrin complexes in non-aqueous medium (CH2Cl2 with 0.1 M nBu4NPF6) have been studied by cyclic voltammetry with glassy carbon and platinum as the working and counter electrodes, respectively. […] The effect of para-substitution on the electrochemical potentials has been examined by Hammett correlation analysis.

[6] = test system: Human Hepatocellular Carcinoma (HepG2); experiment: MTT cytotoxicity, HepG2; type: cell-based; settings: growth inhibition
From the text: Human promyelocytic leukemia (HL-60), human hepatocellular carcinoma (HepG2), Human cervix epitheloid carcinoma cells (HeLa) and human oral epidermoid carcinoma cells (KB-3-1), were obtained from American Type Culture Collection (ATCC) (Rockville, Md.). The multi-drug-resistant variant KB-V1 cell line was obtained by stepwise selections for vinblastine resistance as described by Shen et al., J. Biol. Chem. 261:7762-7770 (1986)], and was generously provided by Dr Michael Gottesman (NIH, Bethesda, Md.). Human nasopharyngeal carcinoma cells (SUNE1 and its cisplatin resistance variant, CNE1) were derived from poorly differentiated NPC in Chinese patients as described by Gu et al., Chin. J. Cancer 2:270-272 (1983), and were generously provided by Dr S. W. Tsao (The University of Hong Kong, Hong Kong, PRC). Cell culture flasks and 96 well microtitre plates were from Nalge Nunc hit. Culture medium, other medium constituents and phosphate buffered saline (PBS) were obtained from Gibco BRL (Rockville, Md.). Cell Proliferation Kit I (MTT) was purchased from Roche (Mannheim, Germany).
The anti-cancer activities of the gold(III) porphyrin complexes were evaluated toward some established human cancer cell lines: promyelocytic leukemia (HL-60), hepatocellular carcinoma (HepG2), cervix epitheloid carcinoma (HeLa), epidermoid carcinoma (KB-3-1) and its multi-drug resistant variant (KB-V1), nasopharyngeal carcinoma (SUNE1) and its cisplatin-resistant variant (CNE1). The experiments were carried out by following the MTT procedure (see Mosmann et al., J. Immunol. Methods 65:55-63 (1983). The IC50 values of the gold(III) porphyrin complexes together with that of cisplatin, and KAuCl4 are provided in Table 4a; and the IC50 values of the gold(III) Schiff-base and bis(pyridyl)carboxamide complexes are shown in Table 4b. The cytotoxicity profiles of some selected gold(III) porphyrin complexes toward SUNE1 and its cisplatin-resistant variant CNE1 are also shown in FIG. 7.

[7] = cyclic voltammetry, 0.1 M nBu4NPF6, glassy carbon, vs Cp2Fe^+/0

For `C1=Cc2nc1c(-c1ccccc1)c1ccc([n-]1)c(-c1ccccc1)c1nc(c(-c3ccccc3)c3ccc([n-]3)c2-c2ccccc2)C=C1.[Au+3].[Cl-]` [Complex 1a], the hypochromicity (calf thymus DNA [1]; Tris buffer, 292.8 K) was 53.4%, the hypochromicity (calf thymus DNA [1]; Tris buffer, 298.0 K) was 50.3% and the “intrinsic binding constant (Kb)” value (calf thymus DNA [1]; Tris buffer, 298.0 K) was 2.14 × 10^6 dm^3mol^−1. For the same compound, the hypochromicity (calf thymus DNA [1]; Tris buffer, 302.3 K) was 49.5%, the “intrinsic binding constant (Kb)” value (calf thymus DNA [1]; Tris buffer, 302.3 K) was 1.98 × 10^6 dm^3mol^−1 and the hypochromicity (calf thymus DNA [1]; Tris buffer, 307.2 K) was 47.1%. For the same compound, the “intrinsic binding constant (Kb)” value (calf thymus DNA [1]; Tris buffer, 307.2 K) was 1.55 × 10^6 dm^3mol^−1, the hypochromicity (calf thymus DNA [1]; Tris buffer, 311.6 K) was 46.3% and the “intrinsic binding constant (Kb)” value (calf thymus DNA [1]; Tris buffer, 311.6 K) was 1.35 × 10^6 dm^3mol^−1. The hypochromicity (calf thymus DNA [1]; Tris buffer, 316.5 K) was 43.4%, the “intrinsic binding constant (Kb)” value (calf thymus DNA [1]; Tris buffer, 316.5 K) was 0.94 × 10^6 dm^3mol^−1 and the hypochromicity (calf thymus DNA [1]; Tris buffer, 321.9 K) was 42.5%. The “intrinsic binding constant (Kb)” value (calf thymus DNA [1]; Tris buffer, 321.9 K) was 0.82 × 10^6 dm^3mol^−1, the “ΔG° (298 K)” value (calf thymus DNA [1]; binding to calf thymus DNA, van't Hoff analysis, 298 K) was −8.7 ± 0.4 and the “hypochromicity of the Soret band” value (calf thymus DNA [1]; calf thymus DNA (0-5 μM), Tris buffer) was 44%. The “hypochromicity of the Q-band at 520 nm” value (calf thymus DNA [1]; calf thymus DNA (0-5 μM), Tris buffer, 2% DMSO) was 40%, the “change in viscosity of the DNA” value (calf thymus DNA [2]) was “no appreciable change in viscosity of the DNA” and the “effect on ApaI digestion of pDR2” value (plasmid DNA (pDR2); Complex:DNA = 0.1:1 (lane C)) was “partial DNA digestion was observed”. For the same compound, the “effect on ApaI digestion of pDR2” value (plasmid DNA (pDR2); Complex:DNA bp = 1:1 (lane D)) was “inhibition of the DNA digestion was observed”, the “hypochromicity of the Soret band” value [3] was 48% and the IC50 [4] was 28.4 µM and 28 µM. The “Couple I (first reduction couple)” value [5, 7] was −1.00 V, the “Couple II (second reduction couple)” value [5, 7] was −1.48 V and the “ΔE1o (E^0Y − E^0H), couple I” value ([5]; relative to Y=H (Complex 1a)) was 0 V. For the same compound, the “ΔE2^0 (E^0Y − E^0H), couple II” value ([5]; relative to Y=H (Complex 1a)) was 0 V and the IC50 [6] was 0.34 µM.
